The supplement of paper PMC10307832

Compound: C1CC(C2=C(C1)C3=C(N2)C=CC(=C3)Cl)C(=O)N [Selisistat] + COc1cccc2cc(-c3nc([C@H]4CC[C@H](C(=O)O)CC4)n4ncnc(N)c34)[nH]c12 [OSI-027] (partner 0.5 µM)
Assay: relative viability (nuclei count vs DMSO), 5 days (fraction); higher = more cells survive
Settings: first compound 0.4 µM
Procedure, shortened: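 For relative viability, nuclei counts in treated wells were divided by those in vehicle wells. Lung cancer cell lines had been pin-tool dosed in 1536-well plates the day after seeding and cultured for 5 days, then fixed and stained in one step (final 0.05% Triton X-100, 1% formaldehyde, 1 ug/ml Hoechst) and imaged at 4×. Doses were one drug alone or a fixed anchor-drug dose plus five library-drug doses (not always all listed) in √10 steps, and values are duplicate-plate medians.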

Q: NCI-H1650 was tested. Which relative viability did it give?
A: 0.633

Q: With NCI-H1993 as the cell line, how does the relative viability read?
A: 0.506

Q: With SW 1573 as the cell line, how does the relative viability read?
A: 0.704

Q: NCI-H838 was tested. Which relative viability did it give?
A: 0.449

Q: Which relative viability does the source give for LCLC-103H here?
A: 0.486

Q: NCI-H520 was tested. Which relative viability did it give?
A: 0.311

Q: Which relative viability does the source give for NCI-H2126 here?
A: 0.781

Q: EMC-BAC-2 was tested. Which relative viability did it give?
A: 0.391

Q: How did the relative viability turn out when NCI-H2085 was run?
A: 0.822

Q: HCC-366 was tested. Which relative viability did it give?
A: 1.01

Q: With NCI-H1666 as the cell line, how does the relative viability read?
A: 0.794

Q: For NCI-H596, which relative viability is on record?
A: 0.793

Q: For LK-2, which relative viability is on record?
A: 0.196

Q: Which relative viability does the source give for NCI-H2087 here?
A: 0.646

Q: Which relative viability does the source give for NCI-H2342 here?
A: 0.654

Q: Which relative viability does the source give for SK-MES-1 here?
A: 0.638

Q: How did the relative viability turn out when H3255 was run?
A: 0.621

Q: For COR-L23, which relative viability is on record?
A: 0.866

Q: With COR-L 105 as the cell line, how does the relative viability read?
A: 0.755

Q: For LOU-NH91, which relative viability is on record?
A: 0.814

Q: How did the relative viability turn out when ChaGo-K-1 was run?
A: 0.588

Q: Which relative viability does the source give for NCI-H2170 here?
A: 0.839

Q: How did the relative viability turn out when NCI-H2405 was run?
A: 0.674

Q: Which relative viability does the source give for HOP-62 here?
A: 0.856

Q: How did the relative viability turn out when HCC-44 was run?
A: 0.591

Q: How did the relative viability turn out when SW 900 was run?
A: 0.447

Q: Which relative viability does the source give for LU99A here?
A: 0.345

Q: For BEN, which relative viability is on record?
A: 0.263

Q: How did the relative viability turn out when HARA was run?
A: 0.632

Q: How did the relative viability turn out when NCI-H1648 was run?
A: 0.274

Q: With NCI-H1563 as the cell line, how does the relative viability read?
A: 0.761

Same assay, conditions: first compound 1.265 µM

Q: With NCI-H522 as the cell line, how does the relative viability read?
A: 0.677

Q: NCI-H1623 was tested. Which relative viability did it give?
A: 0.413

Q: NCI-H727 was tested. Which relative viability did it give?
A: 0.641

Q: NCI-H1650 was tested. Which relative viability did it give?
A: 0.517

Q: For NCI-H1993, which relative viability is on record?
A: 0.584

Q: With SW 1573 as the cell line, how does the relative viability read?
A: 0.616

Q: Which relative viability does the source give for NCI-H838 here?
A: 0.368

Q: With LCLC-103H as the cell line, how does the relative viability read?
A: 0.469

Q: For NCI-H520, which relative viability is on record?
A: 0.216

Q: How did the relative viability turn out when NCI-H2126 was run?
A: 0.639

Q: How did the relative viability turn out when EMC-BAC-2 was run?
A: 0.358

Q: How did the relative viability turn out when NCI-H2085 was run?
A: 0.733

Q: HCC-366 was tested. Which relative viability did it give?
A: 0.837

Q: With NCI-H1666 as the cell line, how does the relative viability read?
A: 0.744

Q: How did the relative viability turn out when NCI-H596 was run?
A: 0.692

Q: LK-2 was tested. Which relative viability did it give?
A: 0.179

Q: How did the relative viability turn out when NCI-H2087 was run?
A: 0.645

Q: For NCI-H2342, which relative viability is on record?
A: 0.589

Q: SK-MES-1 was tested. Which relative viability did it give?
A: 0.668

Q: With H3255 as the cell line, how does the relative viability read?
A: 0.553

Q: Which relative viability does the source give for COR-L23 here?
A: 0.803

Q: With COR-L 105 as the cell line, how does the relative viability read?
A: 0.624

Q: LOU-NH91 was tested. Which relative viability did it give?
A: 0.715

Q: For ChaGo-K-1, which relative viability is on record?
A: 0.461

Q: Which relative viability does the source give for NCI-H2170 here?
A: 0.692

Q: Which relative viability does the source give for NCI-H2405 here?
A: 0.579

Q: Which relative viability does the source give for HOP-62 here?
A: 0.788

Q: SW 900 was tested. Which relative viability did it give?
A: 0.57

Q: Which relative viability does the source give for LU99A here?
A: 0.283

Q: Which relative viability does the source give for BEN here?
A: 0.251

Q: How did the relative viability turn out when HARA was run?
A: 0.405

Q: For NCI-H1648, which relative viability is on record?
A: 0.274

Q: Which relative viability does the source give for NCI-H1563 here?
A: 0.761

Same assay, conditions: first compound 4 µM

Q: With NCI-H522 as the cell line, how does the relative viability read?
A: 0.61

Q: NCI-H1623 was tested. Which relative viability did it give?
A: 0.366

Q: How did the relative viability turn out when NCI-H1650 was run?
A: 0.551

Q: With NCI-H1993 as the cell line, how does the relative viability read?
A: 0.618

Q: For SW 1573, which relative viability is on record?
A: 0.664

Q: Which relative viability does the source give for NCI-H838 here?
A: 0.295

Q: With LCLC-103H as the cell line, how does the relative viability read?
A: 0.348

Q: For NCI-H520, which relative viability is on record?
A: 0.257

Q: For NCI-H2126, which relative viability is on record?
A: 0.609

Q: For EMC-BAC-2, which relative viability is on record?
A: 0.462

Q: For NCI-H2085, which relative viability is on record?
A: 0.397

Q: HCC-366 was tested. Which relative viability did it give?
A: 0.605

Q: For NCI-H1666, which relative viability is on record?
A: 0.841

Q: With NCI-H596 as the cell line, how does the relative viability read?
A: 0.505

Q: With LK-2 as the cell line, how does the relative viability read?
A: 0.174

Q: For NCI-H2342, which relative viability is on record?
A: 0.493

Q: For SK-MES-1, which relative viability is on record?
A: 0.657

Q: With H3255 as the cell line, how does the relative viability read?
A: 0.741

Q: Which relative viability does the source give for COR-L23 here?
A: 0.799

Q: How did the relative viability turn out when LOU-NH91 was run?
A: 0.675

Q: How did the relative viability turn out when ChaGo-K-1 was run?
A: 0.492

Q: How did the relative viability turn out when NCI-H2170 was run?
A: 0.63

Q: Which relative viability does the source give for NCI-H2405 here?
A: 0.598

Q: For HOP-62, which relative viability is on record?
A: 0.826

Q: Which relative viability does the source give for SW 900 here?
A: 0.462

Q: For LU99A, which relative viability is on record?
A: 0.344

Q: BEN was tested. Which relative viability did it give?
A: 0.282

Q: How did the relative viability turn out when HARA was run?
A: 0.382

Q: With NCI-H1648 as the cell line, how does the relative viability read?
A: 0.264

Q: With NCI-H1563 as the cell line, how does the relative viability read?
A: 0.76

Same assay, conditions: first compound 12.65 µM

Q: With NCI-H522 as the cell line, how does the relative viability read?
A: 0.756

Q: NCI-H1623 was tested. Which relative viability did it give?
A: 0.46

Q: NCI-H727 was tested. Which relative viability did it give?
A: 0.641

Q: Which relative viability does the source give for NCI-H1650 here?
A: 0.534

Q: How did the relative viability turn out when NCI-H1993 was run?
A: 0.554

Q: With SW 1573 as the cell line, how does the relative viability read?
A: 0.772

Q: NCI-H838 was tested. Which relative viability did it give?
A: 0.407

Q: For LCLC-103H, which relative viability is on record?
A: 0.479

Q: NCI-H520 was tested. Which relative viability did it give?
A: 0.248

Q: Which relative viability does the source give for NCI-H2126 here?
A: 0.62

Q: How did the relative viability turn out when EMC-BAC-2 was run?
A: 0.362

Q: NCI-H2085 was tested. Which relative viability did it give?
A: 0.79

Q: How did the relative viability turn out when HCC-366 was run?
A: 0.889

Q: With NCI-H1666 as the cell line, how does the relative viability read?
A: 0.673

Q: Which relative viability does the source give for NCI-H596 here?
A: 0.698

Q: With LK-2 as the cell line, how does the relative viability read?
A: 0.179

Q: Which relative viability does the source give for NCI-H2087 here?
A: 0.516

Q: NCI-H2342 was tested. Which relative viability did it give?
A: 0.577

Q: With SK-MES-1 as the cell line, how does the relative viability read?
A: 0.437

Q: H3255 was tested. Which relative viability did it give?
A: 0.579

Q: How did the relative viability turn out when COR-L23 was run?
A: 0.653

Q: With COR-L 105 as the cell line, how does the relative viability read?
A: 0.712

Q: LOU-NH91 was tested. Which relative viability did it give?
A: 0.756

Q: For ChaGo-K-1, which relative viability is on record?
A: 0.535

Q: How did the relative viability turn out when NCI-H2170 was run?
A: 0.766

Q: For NCI-H2405, which relative viability is on record?
A: 0.674

Q: With HOP-62 as the cell line, how does the relative viability read?
A: 0.809

Q: With HCC-44 as the cell line, how does the relative viability read?
A: 0.457

Q: SW 900 was tested. Which relative viability did it give?
A: 0.495

Q: Which relative viability does the source give for LU99A here?
A: 0.288

Q: Which relative viability does the source give for BEN here?
A: 0.282

Q: How did the relative viability turn out when HARA was run?
A: 0.508

Q: Which relative viability does the source give for NCI-H1648 here?
A: 0.237

Q: Which relative viability does the source give for NCI-H1563 here?
A: 0.655

Same assay, conditions: first compound 40 µM

Q: With NCI-H522 as the cell line, how does the relative viability read?
A: 0.681

Q: NCI-H1623 was tested. Which relative viability did it give?
A: 0.451

Q: NCI-H727 was tested. Which relative viability did it give?
A: 0.511

Q: With NCI-H1650 as the cell line, how does the relative viability read?
A: 0.611

Q: For NCI-H1993, which relative viability is on record?
A: 0.542

Q: SW 1573 was tested. Which relative viability did it give?
A: 0.545

Q: Which relative viability does the source give for NCI-H838 here?
A: 0.409

Q: For LCLC-103H, which relative viability is on record?
A: 0.442

Q: With NCI-H520 as the cell line, how does the relative viability read?
A: 0.206

Q: NCI-H2126 was tested. Which relative viability did it give?
A: 0.768

Q: For EMC-BAC-2, which relative viability is on record?
A: 0.342

Q: How did the relative viability turn out when NCI-H2085 was run?
A: 0.921

Q: Which relative viability does the source give for HCC-366 here?
A: 0.898

Q: NCI-H1666 was tested. Which relative viability did it give?
A: 0.711

Q: How did the relative viability turn out when NCI-H596 was run?
A: 0.732

Q: For LK-2, which relative viability is on record?
A: 0.255

Q: For NCI-H2087, which relative viability is on record?
A: 0.652

Q: How did the relative viability turn out when NCI-H2342 was run?
A: 0.628

Q: For SK-MES-1, which relative viability is on record?
A: 0.646

Q: Which relative viability does the source give for H3255 here?
A: 0.648

Q: For COR-L23, which relative viability is on record?
A: 0.653

Q: With COR-L 105 as the cell line, how does the relative viability read?
A: 0.584

Q: Which relative viability does the source give for LOU-NH91 here?
A: 0.708

Q: Which relative viability does the source give for ChaGo-K-1 here?
A: 0.617

Q: NCI-H2170 was tested. Which relative viability did it give?
A: 0.739

Q: NCI-H2405 was tested. Which relative viability did it give?
A: 0.666

Q: With HOP-62 as the cell line, how does the relative viability read?
A: 0.915

Q: For HCC-44, which relative viability is on record?
A: 0.586

Q: How did the relative viability turn out when SW 900 was run?
A: 0.484

Q: With LU99A as the cell line, how does the relative viability read?
A: 0.297

Q: How did the relative viability turn out when BEN was run?
A: 0.274

Q: Which relative viability does the source give for HARA here?
A: 0.477

Q: Which relative viability does the source give for NCI-H1648 here?
A: 0.277

Q: With NCI-H1563 as the cell line, how does the relative viability read?
A: 0.703
